Reference: patent US20250177414A1, “COMBINATION THERAPIES FOR TREATMENT OF BREAST CANCER” (Genentech, Inc., priority 2023, published 2025)
Entries after “also recorded” stand apart in the source; their conditions may differ. Like-named read-outs stand apart in the source and are kept apart here.

Legend:
ER = settings: cited from earlier work
[1] = system: patients with HR+/HER2− breast cancer; settings: in combination with letrozole; cited from earlier work
[2] = system: patients with HR+/HER2− breast cancer; settings: in combination with fulvestrant; cited from earlier work
patients with HR+ LA/mBC = settings: published trials; cited from earlier work
OAT1 = OAT1 (Homo sapiens, UniProt Q4U2R8); assay: In vitro transporter study; type: in vitro ADME
dogs = assay: Repeat-dose toxicity studies in dogs; type: in vivo, dog
P-glycoprotein (P-gp) = P-glycoprotein (P-gp) (Homo sapiens, UniProt P08183); assay: In vitro transporter study; type: in vitro ADME
P-glycoprotein (P-gp), sequence (P08183 whole entry): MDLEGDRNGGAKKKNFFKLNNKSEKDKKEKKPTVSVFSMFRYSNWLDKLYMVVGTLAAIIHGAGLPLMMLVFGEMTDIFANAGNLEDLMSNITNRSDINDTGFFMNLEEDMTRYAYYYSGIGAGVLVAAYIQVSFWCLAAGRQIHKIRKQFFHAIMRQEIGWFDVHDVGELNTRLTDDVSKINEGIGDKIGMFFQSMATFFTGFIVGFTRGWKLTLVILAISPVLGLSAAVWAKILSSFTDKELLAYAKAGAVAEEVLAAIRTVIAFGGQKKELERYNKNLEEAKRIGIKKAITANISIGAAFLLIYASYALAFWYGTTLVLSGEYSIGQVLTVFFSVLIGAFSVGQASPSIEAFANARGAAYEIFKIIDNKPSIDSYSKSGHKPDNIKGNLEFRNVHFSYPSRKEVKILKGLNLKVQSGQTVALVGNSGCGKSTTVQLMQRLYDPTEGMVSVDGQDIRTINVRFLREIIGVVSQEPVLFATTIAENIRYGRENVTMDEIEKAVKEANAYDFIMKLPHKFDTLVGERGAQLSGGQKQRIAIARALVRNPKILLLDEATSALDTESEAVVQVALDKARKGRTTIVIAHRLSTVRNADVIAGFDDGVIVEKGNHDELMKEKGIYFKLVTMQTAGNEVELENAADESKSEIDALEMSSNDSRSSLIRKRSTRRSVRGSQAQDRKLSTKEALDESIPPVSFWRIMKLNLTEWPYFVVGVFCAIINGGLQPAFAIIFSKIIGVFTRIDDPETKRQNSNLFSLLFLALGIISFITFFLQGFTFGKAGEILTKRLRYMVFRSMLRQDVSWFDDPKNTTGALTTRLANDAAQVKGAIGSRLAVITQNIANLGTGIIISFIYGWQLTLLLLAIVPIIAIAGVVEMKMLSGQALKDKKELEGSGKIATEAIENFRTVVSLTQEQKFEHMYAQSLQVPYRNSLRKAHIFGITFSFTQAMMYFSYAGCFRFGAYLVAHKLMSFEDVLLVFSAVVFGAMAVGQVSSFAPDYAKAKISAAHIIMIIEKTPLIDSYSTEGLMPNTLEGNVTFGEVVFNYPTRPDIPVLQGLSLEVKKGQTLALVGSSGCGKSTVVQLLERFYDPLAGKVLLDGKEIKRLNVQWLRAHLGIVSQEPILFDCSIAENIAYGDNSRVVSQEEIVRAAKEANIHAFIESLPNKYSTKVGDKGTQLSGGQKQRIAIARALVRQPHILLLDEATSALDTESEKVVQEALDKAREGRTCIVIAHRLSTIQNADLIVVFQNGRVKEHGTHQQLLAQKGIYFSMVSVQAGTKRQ

CYP1A2 = CYP1A2 (Homo sapiens, UniProt P05177); assay: In vitro CYP450 study; type: in vitro ADME
rats = assay: Repeat-dose toxicity studies in rats; type: in vivo, rat
[3] = Plasma protein binding in vitro; type: in vitro ADME
OATP1B1 = OATP1B1 (Homo sapiens, UniProt Q9Y6L6); assay: In vitro transporter study; type: in vitro ADME
MATE1 = MATE1 (Homo sapiens, UniProt Q96FL8); assay: In vitro transporter study; type: in vitro ADME
MATE1, sequence (Q96FL8 whole entry): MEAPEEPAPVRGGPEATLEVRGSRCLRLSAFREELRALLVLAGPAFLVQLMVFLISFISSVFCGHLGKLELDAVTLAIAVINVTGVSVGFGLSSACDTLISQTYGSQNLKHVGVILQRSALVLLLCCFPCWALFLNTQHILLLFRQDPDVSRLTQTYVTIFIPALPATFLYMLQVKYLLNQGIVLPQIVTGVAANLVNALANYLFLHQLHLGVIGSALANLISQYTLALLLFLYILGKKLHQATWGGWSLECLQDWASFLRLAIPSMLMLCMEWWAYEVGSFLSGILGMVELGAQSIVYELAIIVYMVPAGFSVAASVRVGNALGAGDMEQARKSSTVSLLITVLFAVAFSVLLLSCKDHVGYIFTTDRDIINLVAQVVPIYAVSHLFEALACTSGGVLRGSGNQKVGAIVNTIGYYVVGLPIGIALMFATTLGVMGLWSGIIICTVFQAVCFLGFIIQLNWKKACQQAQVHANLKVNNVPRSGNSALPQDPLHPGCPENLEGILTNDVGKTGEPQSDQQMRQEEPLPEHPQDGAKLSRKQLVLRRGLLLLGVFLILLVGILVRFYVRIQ

MATE2K = MATE2K (Homo sapiens, UniProt Q86VL8); assay: In vitro transporter study; type: in vitro ADME
MATE2K, sequence (Q86VL8 1-566 isoform Q86VL8-3): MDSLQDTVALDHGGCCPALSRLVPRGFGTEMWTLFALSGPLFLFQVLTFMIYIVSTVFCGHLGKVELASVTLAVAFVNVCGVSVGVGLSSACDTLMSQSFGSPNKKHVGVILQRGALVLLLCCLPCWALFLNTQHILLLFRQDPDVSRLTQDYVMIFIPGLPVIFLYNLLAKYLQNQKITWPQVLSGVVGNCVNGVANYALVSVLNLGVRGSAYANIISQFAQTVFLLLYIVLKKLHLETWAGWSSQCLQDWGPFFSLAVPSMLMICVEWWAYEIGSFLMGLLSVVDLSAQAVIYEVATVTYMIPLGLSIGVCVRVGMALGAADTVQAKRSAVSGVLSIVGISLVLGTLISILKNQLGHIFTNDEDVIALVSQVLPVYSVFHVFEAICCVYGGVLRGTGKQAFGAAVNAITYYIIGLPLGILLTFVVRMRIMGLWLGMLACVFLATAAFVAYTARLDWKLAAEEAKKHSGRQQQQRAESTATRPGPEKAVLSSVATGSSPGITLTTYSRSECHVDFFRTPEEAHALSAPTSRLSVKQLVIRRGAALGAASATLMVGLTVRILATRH

CYP2D6 = CYP2D6 (Homo sapiens, UniProt P10635); assay: In vitro CYP450 study; type: in vitro ADME
OCT2 = OCT2 (Homo sapiens, UniProt O15244); assay: In vitro transporter study; type: in vitro ADME
OCT2, sequence (O15244 whole entry): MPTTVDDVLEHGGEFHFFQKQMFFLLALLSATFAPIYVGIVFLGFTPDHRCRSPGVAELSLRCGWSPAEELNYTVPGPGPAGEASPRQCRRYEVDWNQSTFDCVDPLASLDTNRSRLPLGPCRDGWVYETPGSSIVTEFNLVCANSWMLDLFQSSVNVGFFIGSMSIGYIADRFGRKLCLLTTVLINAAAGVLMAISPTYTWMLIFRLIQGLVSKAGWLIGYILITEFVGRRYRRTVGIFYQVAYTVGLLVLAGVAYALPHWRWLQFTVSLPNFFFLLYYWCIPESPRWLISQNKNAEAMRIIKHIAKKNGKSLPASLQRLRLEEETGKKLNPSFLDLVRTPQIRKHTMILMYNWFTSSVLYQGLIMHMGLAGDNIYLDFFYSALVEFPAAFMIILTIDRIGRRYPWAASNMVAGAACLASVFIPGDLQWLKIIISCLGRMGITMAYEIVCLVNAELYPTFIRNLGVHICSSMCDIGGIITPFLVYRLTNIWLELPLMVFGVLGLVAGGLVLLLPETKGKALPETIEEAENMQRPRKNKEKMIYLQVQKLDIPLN

CYP3A = assay: In vitro CYP450 study; type: in vitro ADME
PI3Kα = PI3Kα (Homo sapiens, UniProt P42336); assay: PI3K inhibition; type: biochemical
QTc interval = assay: Cardiac electrophysiology; type: in vivo, human; settings: recommended approved dosage
Description: At the recommended approved dosage, a mean increase in the QTc interval of ≥20 ms is unlikely.

CYP2C8 = CYP2C8 (Homo sapiens, UniProt P10632); assay: In vitro CYP450 study; type: in vitro ADME
OATP1B3 = OATP1B3 (Homo sapiens, UniProt Q9NPD5); assay: In vitro transporter study; type: in vitro ADME
OATP1B3, sequence (Q9NPD5 whole entry): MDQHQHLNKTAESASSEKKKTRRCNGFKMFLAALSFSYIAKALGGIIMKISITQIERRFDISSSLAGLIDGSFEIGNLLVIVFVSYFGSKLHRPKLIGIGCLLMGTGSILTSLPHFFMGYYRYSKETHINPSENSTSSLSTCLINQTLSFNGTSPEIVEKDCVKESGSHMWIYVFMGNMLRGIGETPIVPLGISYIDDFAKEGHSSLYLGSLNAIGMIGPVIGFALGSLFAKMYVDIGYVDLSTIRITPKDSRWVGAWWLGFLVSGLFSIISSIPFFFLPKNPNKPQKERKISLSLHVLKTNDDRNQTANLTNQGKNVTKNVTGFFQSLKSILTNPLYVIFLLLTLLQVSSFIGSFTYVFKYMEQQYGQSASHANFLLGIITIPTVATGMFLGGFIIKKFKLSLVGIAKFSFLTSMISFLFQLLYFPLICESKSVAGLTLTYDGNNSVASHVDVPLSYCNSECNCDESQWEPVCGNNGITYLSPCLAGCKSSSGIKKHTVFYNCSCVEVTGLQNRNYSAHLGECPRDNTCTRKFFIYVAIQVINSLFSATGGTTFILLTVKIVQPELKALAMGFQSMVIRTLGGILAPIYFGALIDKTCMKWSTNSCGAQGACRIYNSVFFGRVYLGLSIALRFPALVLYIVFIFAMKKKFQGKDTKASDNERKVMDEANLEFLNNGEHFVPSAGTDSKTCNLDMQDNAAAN

OAT2 = OAT2 (Homo sapiens, UniProt Q9Y694); assay: In vitro transporter study; type: in vitro ADME
[4] = system: PIK3CA-mutated breast cancer cell lines; assay: In vitro activity in breast cancer cell lines
CYP2C9 = CYP2C9 (Homo sapiens, UniProt P11712); assay: In vitro CYP450 study; type: in vitro ADME
[5] = target: breast cancer resistance protein (BCRP) (Homo sapiens, UniProt Q9UNQ0); assay: In vitro transporter study; type: in vitro ADME
CYP2C19 = CYP2C19 (Homo sapiens, UniProt P33261); assay: In vitro CYP450 study; type: in vitro ADME
liver = settings: in vivo
[6] = system: PIK3CA-mutated, estrogen receptor-positive, breast cancer xenograft models; assay: Breast cancer xenograft models; type: in vivo; settings: single agent
[7] = Clinical pharmacokinetics of inavolisib
[8] = system: bacterial reverse mutation; assay: Bacterial reverse mutation (Ames) assay; type: cell-based
Description: (§1) Inavolisib was not mutagenic in the bacterial reverse mutation (Ames) assay. Inavolisib was clastogenic in an in vitro human lymphocyte micronucleus assay.

clinical = settings: human, 9 mg/day
human lymphocyte = assay: In vitro human lymphocyte micronucleus assay; type: cell-based
Description: as §1

OCT1 = OCT1 (Homo sapiens, UniProt O15245); assay: In vitro transporter study; type: in vitro ADME
OCT1, sequence (O15245 whole entry): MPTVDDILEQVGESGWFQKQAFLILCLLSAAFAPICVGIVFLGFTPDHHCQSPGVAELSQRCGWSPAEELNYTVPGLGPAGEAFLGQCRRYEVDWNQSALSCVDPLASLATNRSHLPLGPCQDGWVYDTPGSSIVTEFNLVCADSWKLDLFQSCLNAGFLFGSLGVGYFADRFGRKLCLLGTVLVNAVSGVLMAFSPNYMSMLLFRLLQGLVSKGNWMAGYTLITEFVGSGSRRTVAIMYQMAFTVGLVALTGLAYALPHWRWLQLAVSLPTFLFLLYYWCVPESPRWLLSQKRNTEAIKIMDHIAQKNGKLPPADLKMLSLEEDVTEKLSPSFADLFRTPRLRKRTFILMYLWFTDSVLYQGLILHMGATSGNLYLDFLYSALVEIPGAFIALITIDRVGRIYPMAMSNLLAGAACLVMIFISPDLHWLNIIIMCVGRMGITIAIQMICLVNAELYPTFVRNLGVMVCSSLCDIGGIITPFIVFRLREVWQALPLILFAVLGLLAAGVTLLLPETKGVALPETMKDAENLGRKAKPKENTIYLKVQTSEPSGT

rat bone marrow = assay: In vivo rat bone marrow micronucleus test
OAT3 = OAT3 (Homo sapiens, UniProt Q8TCC7); assay: In vitro transporter study; type: in vitro ADME
CYP2B6 = CYP2B6 (Homo sapiens, UniProt P20813); assay: In vitro CYP450 study; type: in vitro ADME
CYP2B6, sequence (P20813 whole entry): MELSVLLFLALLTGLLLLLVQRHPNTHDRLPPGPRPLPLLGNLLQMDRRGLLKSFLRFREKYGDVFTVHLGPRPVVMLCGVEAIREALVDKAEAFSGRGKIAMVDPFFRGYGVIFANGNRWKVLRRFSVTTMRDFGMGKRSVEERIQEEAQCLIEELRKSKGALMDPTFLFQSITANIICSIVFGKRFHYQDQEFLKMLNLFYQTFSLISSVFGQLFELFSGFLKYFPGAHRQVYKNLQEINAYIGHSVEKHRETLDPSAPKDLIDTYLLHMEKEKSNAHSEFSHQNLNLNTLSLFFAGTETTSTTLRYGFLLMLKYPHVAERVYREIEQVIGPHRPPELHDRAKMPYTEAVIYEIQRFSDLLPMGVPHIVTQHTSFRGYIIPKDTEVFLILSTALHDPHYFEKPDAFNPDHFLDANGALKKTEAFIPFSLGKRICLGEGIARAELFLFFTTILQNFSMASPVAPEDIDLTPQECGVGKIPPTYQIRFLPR

Aqueous solubility = type: physicochemical
Description: Inavolisib is a white to off-white, greyish pink, greyish orange, or greyish yellow powder or powder with lumps.

pregnant rats = assay: Embryo-fetal development study; type: in vivo, rat

C[C@]12CC[C@@H]3c4ccc(O)cc4C[C@@H](CCCCCCCCC[S+]([O-])CCCC(F)(F)C(F)(F)F)[C@H]3[C@@H]1CC[C@@H]2O (stereo partly drawn) [fulvestrant, (7α,17β)-7-{9-[(4,4,5,5,5-pentafluoropentyl)sulfinyl]nonyl}estra-1,3,5(10)-triene-3,17-diol]
Affinity for the ER relative to tamoxifen (ER): approximately 100 fold

CC(=O)c1c(C)c2cnc(Nc3ccc(N4CCNCC4)cn3)nc2n(C2CCCC2)c1=O [palbociclib, 6-acetyl-8-cyclopentyl-5-methyl-2-(5-(piperazin-1-yl)pyridin-2-ylamino)pyrido[2,3-d]pyrimidin-7(8H)-one]
Cycle delays [1]: 68%
Dose holds [1]: 70%
Patients requiring ≥1 dose reduction of palbociclib [1]: 36%
Cycle delays [2]: 36%
Dose holds [2]: 54%
Patients requiring ≥1 dose reduction of palbociclib [2]: 34%

CO[C@H]1C[C@@H]2CC[C@@H](C)[C@@](O)(O2)C(=O)C(=O)N2CCCC[C@H]2C(=O)O[C@H]([C@H](C)C[C@@H]2CC[C@@H](OCCO)[C@H](OC)C2)CC(=O)[C@H](C)/C=C(\C)[C@@H](O)[C@@H](OC)C(=O)[C@H](C)C[C@H](C)/C=C/C=C/C=C/1C [everolimus]
Treatment discontinuation rate due to adverse events (patients with HR+ LA/mBC): 19%

C[C@H](Nc1ccc2c(c1)OCCn1cc(N3C(=O)OC[C@H]3C(F)F)nc1-2)C(N)=O [inavolisib, (S)-2-((2-((S)-4-(difluoromethyl)-2-oxooxazolidin-3-yl)-5,6-dihydrobenzo[f]imidazo[1,2-d][1,4]oxazepin-9-yl)amino)propanamide]
OAT1 inhibition (OAT1): does not inhibit
OAT1 substrate (OAT1): is not a substrate
Dose with lens cortex vacuolation (dogs; dogs, oral): ≥ 1 mg/kg/day
Dose with lens fiber swelling (dogs; dogs, oral): ≥ 0.3 mg/kg/day
Dose with decreased sperm count (dogs; male dogs, 3 months): ≥ 1 mg/kg/day
Dose with testis and epididymis findings (dogs; male dogs, 4 weeks): ≥ 1.5 mg/kg/day
P-gp inhibition (P-glycoprotein (P-gp)): does not inhibit
P-gp substrate (P-glycoprotein (P-gp)): is a substrate
CYP1A2 inhibition (CYP1A2): does not inhibit
Dose with atrophy in uterus and vagina, decreased ovarian follicles, estrous cycle alteration (rats; female rats, up to 3 months): ≥ 3 mg/kg/day
Dose with atrophy of prostate and seminal vesicle and decreased male reproductive organ weights (rats; male rats): ≥ 1.5 mg/kg/day
Dose with lens degeneration (rats; rats, oral): 10 mg/kg/day
fraction unbound [3]: 0.63
OATP1B1 inhibition (OATP1B1): does not inhibit
OATP1B1 substrate (OATP1B1): is not a substrate
MATE1 inhibition (MATE1): does not inhibit
MATE1 substrate (MATE1): is not a substrate
MATE2K inhibition (MATE2K): does not inhibit
MATE2K substrate (MATE2K): is not a substrate
CYP2D6 inhibition (CYP2D6): does not inhibit
OCT2 inhibition (OCT2): does not inhibit
OCT2 substrate (OCT2): is not a substrate
CYP3A induction (CYP3A): induces
CYP3A inhibition (CYP3A): time-dependent inhibitor
Metabolism by CYP3A (CYP3A): minimally metabolized
PI3K isoform inhibitory activity (PI3Kα): inhibitory activity predominantly against PI3Kα
Mean increase in the QTc interval of ≥20 ms (QTc interval): unlikely
CYP2C8 inhibition (CYP2C8): does not inhibit
OATP1B3 inhibition (OATP1B3): does not inhibit
OATP1B3 substrate (OATP1B3): is not a substrate
OAT2 substrate (OAT2): is not a substrate
Apoptosis ([4]; in vitro): induces apoptosis
Cellular proliferation ([4]; in vitro): reduced cellular proliferation; also recorded: inhibits proliferation
Degradation of mutated PI3K catalytic alpha subunit p110α ([4]; in vitro): induced the degradation; also recorded: specifically degrades mutant p110 alpha
Phosphorylation of the downstream target AKT ([4]; in vitro): inhibited phosphorylation
Downstream PI3K-pathway markers, including pAKT, pPRAS40, and pS6 ([4]; nonclinical studies): reduces downstream PI3K-pathway markers
CYP2C9 inhibition (CYP2C9): does not inhibit
BCRP inhibition [5]: does not inhibit
BCRP substrate [5]: is a substrate
CYP2C19 inhibition (CYP2C19): does not inhibit
DNA break (liver): did not induce DNA break
Tumor growth [6]: reduced tumor growth; also recorded: inhibits tumor growth
Dose proportionality of steady-state AUC ([7]; 6 to 12 mg): proportional with dose
Effect of food on pharmacokinetics ([7]; high-fat meal): No clinically significant differences
Accumulation ([7]; human, in vivo): approximately 2 fold
Metabolism ([7]; human, in vivo): primarily metabolized by hydrolysis
Pharmacokinetics by age, sex, race, body weight, or mild hepatic impairment ([7]; human, in vivo): No clinically significant differences
Steady-state pharmacokinetics with concomitant proton pump inhibitor ([7]; human, in vivo): No clinically significant difference
Pharmacokinetics vs normal renal function ([7]; mild renal impairment): No clinically significant differences
AUC increase vs normal renal function ([7]; moderate renal impairment): 73%
Time to attain steady-state concentrations ([7]; predicted): ≤ 5 days
Administered dose recovered in feces ([7]; single oral radiolabeled dose): 48%
Administered dose recovered in feces unchanged ([7]; single oral radiolabeled dose): 11%
Administered dose recovered in urine ([7]; single oral radiolabeled dose): 49%
Administered dose recovered in urine unchanged ([7]; single oral radiolabeled dose): 40%
Mutagenicity [8]: not mutagenic
bioavailability (clinical; in vivo, po): 76%
clearance (clinical; plasma, oral): 147 mL/min
half-life (clinical; plasma, oral): 15 h
Vd/F (clinical; plasma, po): 155 L
Clastogenicity (human lymphocyte): clastogenic
OCT1 inhibition (OCT1): does not inhibit
OCT1 substrate (OCT1): is not a substrate
Genotoxicity (rat bone marrow): not genotoxic
OAT3 inhibition (OAT3): does not inhibit
CYP2B6 induction (CYP2B6): induces
CYP2B6 inhibition (CYP2B6): does not inhibit
Aqueous solubility (Aqueous solubility): pH-dependent aqueous solubility
Developmental outcomes (pregnant rats; maternal exposures approximately equivalent to the human exposure at 9 mg/day): caused adverse developmental outcomes
Dose resulting in decreased fetal body weight and placental weight, post-implantation loss, lower fetal viability, fetal malformations and variations (pregnant rats; oral, period of organogenesis): ≥ 2 mg/kg/day

Cc1nc(NC(=O)N2CCC[C@H]2C(N)=O)sc1-c1ccnc(C(C)(C)C(F)(F)F)c1 [alpelisib]
Treatment discontinuation rate due to adverse events (patients with HR+ LA/mBC): 25.0%
